Consider 30 molecules from patent publication US20130287807A1, “COMPOUNDS FOR TREATING SYMPTOMS ASSOCIATED WITH PARKINSON'S DISEASE” (priority 2008, published 2013).

The subject of assay [1] is monoclonal antibody MV-002. Nature of the assay: In vitro binding assay (ELISA), BSA-coupled peptides, parental antibody MV-002. The note with it: Table 1 (MV-002); peptide-BSA on plate, compared to original epitope. More on the design: species or system C57/B16 mice. The method, then:
(§1) Peptides derived from Phage Display as well as variants thereof were coupled to BSA and bound to ELISA plates (1 μM; as indicated in the respective figures) and subsequently incubated with the monoclonal antibody that was used for the screening procedure to analyse binding capacity of identified peptides.
Legend to Table 1: the binding capacity is coded by the following binding code: 1:X describes the dilution factor of the parental AB. Ac- . . . indicates acetylated AA.
A general note: In an ELISA, binding on a coated surface is turned into a signal by an enzyme label.

In assay [2] the test system is Aβ/truncated/modified forms. Nature of the assay: In vivo characterisation of mimotopes: detection of Aβ/truncated/modified forms. Set-up: species or system C57/B16 mice; key: +: All peptides listed in table 4 mount specific immune reactions against full length and/or truncated and modified forms of Aβ or fragments thereof. The note with it: Table 4, MV-002 derived mimotopes. The method, then:
(§2) Inhibiting as well as non-inhibiting peptides were coupled to KLH and injected into mice (wildtype C57/B16 mice; subcutaneous injection into the flank) together with an appropriate adjuvant (aluminium hydroxide). Animals were vaccinated 3-6 times in biweekly intervals and sera were taken biweekly as well. Titers to injected peptides, as well as to an irrelevant peptide were determined with every serum. Furthermore, titers against the recombinant human Aβ protein, and against original peptides were determined respectively. In general sera were analysed by reaction against peptides coupled to Bovine Serum Albumin (BSA) and recombinant full length proteins which were immobilised on ELISA plates. Titers were determined using anti mouse IgG specific antibodies. For detailed results see FIGS. 15, 16 and 17 respectively and FIGS. 23, 24 and 25 respectively.
(§3) Female C57/b16 mice, 5-6 mice per group, were subcutaneously immunized with 30 μg peptide coupled to KLH. Control groups were administered original epitope-KLH conjugates respectively. As adjuvant alum was used (always 1 mg per mouse). […] The in vitro ELISA assay to determine the antibody titer was performed with sera of single mice after each vaccination in a two week interval (see FIGS. 15 and 16 respectively). The wells of the ELISA plate were coated with mimotope-BSA conjugate and an irrelevant peptide-BSA conjugate (negative control). The positive control was performed by reaction of the parental antibody with the respective mimotope-BSA conjugate. The detection was performed with anti-mouse IgG. Additionally, recombinant proteins were immobilised on ELISA plates and sera reacted accordingly. FIGS. 15 to 17 show representative examples for assays used to characterise mimotopes in vivo.
as §3, with “FIGS. 25” for “FIGS. 15”, “and 26” for “and 16”, “respectively). Titers were calculated as OD max/2 in all figures shown.” for “respectively).”, “FIGS. 23, 24 and 25” for “FIGS. 15 to 17”

Assay [3] concerns monoclonal antibody MV-002. Nature of the assay: In vitro inhibition assay (ELISA), MV-002 binding to original epitope. The note with it: Table 2 (MV-002); OD at 5 ug peptide compared to original peptide. More on the design: species or system C57/B16 mice. The method, then: (§4) Different amounts of peptides (concentrations ranging from 10 μg to 0.08 μg; serial dilutions; for MV-002: concentrations ranging from 5 μg to 0.03 μg; serial dilutions), derived from Phage Display were incubated with the monoclonal antibody that was used for the screening procedure. Peptides diminishing subsequent binding of the antibody to the original epitope coated on ELISA plates were considered as inhibiting in this assay.
Legend to Table 2: the inhibition capacity is coded by the following code: Weak inhibition means more peptide is required to lower AB binding than with the original epitope; strong inhibition means similar peptide amounts are required for mimotope and original epitope for lowering AB binding. Mimotopes are compared to the original peptide as standard. OD at 5 ug peptide used in the assay is used to calculate the competition capacity compared to original peptide.

Assay [4] concerns monoclonal antibody MV-004. Nature of the assay: In vitro binding assay (ELISA), BSA-coupled peptides, parental antibody MV-004. More on the design: species or system BalbC mice. The note with it: Table 1B; peptide-BSA on plate, compared to original epitope. As for the experimental part:
as §1
Legend to Table 1B: the binding capacity is coded by the following binding code: 1:X describes the dilution factor of the parental AB.

The test system of assay [5] is monoclonal antibody MV-004. Nature of the assay: In vitro inhibition assay (ELISA), MV-004 binding to original epitope. Set-up: species or system BalbC mice. The note with it: Table 2B; OD at 10 ug peptide compared to original peptide. As for the experimental part:
as §4
Legend to Table 2B: the inhibition capacity is coded by the following code: Weak inhibition means more peptide is required to lower AB binding than with the original epitope; strong inhibition means similar peptide amounts are required for mimotope and original epitope for lowering AB binding. Mimotopes are compared to the original peptide as standard. OD at 10 ug peptide used in the assay is used to calculate the competition capacity compared to original peptide.

The subject of assay [6] is monoclonal antibody MV-001. Kind of assay: In vitro inhibition assay (ELISA), MV-001 binding to original epitope. Set-up: species or system C57/B16 mice. The note with it: Table 2C; OD at 10 ug peptide compared to original peptide. As for the experimental part: as §4
Legend to Table 2C: the inhibition capacity is coded by the following code: Weak inhibition means more peptide is required to lower AB binding than with the original epitope; strong inhibition means similar peptide amounts are required for mimotope and original epitope for lowering AB binding. Mimotopes are compared to the original peptide as standard. OD at 10 ug peptide used in the assay is used to calculate the competition capacity compared to original peptide.

In assay [7] the test system is monoclonal antibody MV-001. Kind of assay: In vitro binding assay (ELISA), BSA-coupled peptides, parental antibody MV-001. Set-up: species or system C57/B16 mice. The note with it: Table 1C; peptide-BSA on plate, compared to original epitope. The method, then:
as §1
Legend to Table 1C: the binding capacity is coded by the following binding code: 1:X describes the dilution factor of the parental AB

Assay [8] relates to Aβ/truncated/modified forms. Kind of assay: In vivo characterisation of mimotopes: detection of Aβ/truncated/modified forms. More on the design: species or system C57/B16 mice; key: +: All peptides listed in Table 4 mount specific immune reactions against full length and/or truncated and modified forms of Aβ or fragments thereof. The note with it: Table 4, MV-001 derived mimotopes. The method, then:
as §2, §3
as §3, with “FIGS. 25” for “FIGS. 15”, “and 26” for “and 16”, “respectively). Titers were calculated as OD max/2 in all figures shown.” for “respectively).”, “FIGS. 23, 24 and 25” for “FIGS. 15 to 17”

The target in assay [9] is monoclonal antibody MV-002. Kind of assay: ELISA on peptide-BSA; code 1 = weak binding, OD halfmax 1:<40000.

Turning to SGEIHFNC [p4415], the “Binding Capacity” value in assay [1] is listed as 1 (weak binding :<40000). Moreover, the “Detection of Aβ/truncated/modified forms” value in [2] is reported as “+”.

Take GEIKFDHC [p4698]: the “Binding Capacity” value in assay [1] is listed as 3 (strong binding :>320000). Further, in [3], the “Inhibition Capacity” value is recorded as 2 (strong inhibition (as original epitope; OD of peptide below 2, 3 times of original peptide)). The “Detection of Aβ/truncated/modified forms” value in assay [2] is on record as “+”.

For ERWHEKC [p4790], the “Binding Capacity” value in [4] is given as 1 (weak binding :<24000). In assay [5], the “Inhibition Capacity” value was 2 (strong inhibition (as original epitope; OD of 10 ug peptide below 2 times of original peptide)).

For the molecule EVWHRLQC [p4419], in [4], the “Binding Capacity” value was 3 (strong binding :>96000). Besides, in [5], the “Inhibition Capacity” value is 2 (strong inhibition (as original epitope; OD of 10 ug peptide below 2 times of original peptide)).

For SGEYVFHC [p4404], the “Binding Capacity” value in assay [1] was 1 (weak binding :<40000). For the same molecule, the “Detection of Aβ/truncated/modified forms” value in [2] is “+”.

With ERWHEKHC [p4418], in assay [4], the “Binding Capacity” value is given as 3 (strong binding :>96000). Also, the “Inhibition Capacity” value in assay [5] was 2 (strong inhibition (as original epitope; OD of 10 ug peptide below 2 times of original peptide)).

On to GELWFPC [p4673], for which the “Binding Capacity” value in [1] is 3 (strong binding :>320000). Also, the “Inhibition Capacity” value in assay [3] was 1 (Weaker than original epitope (OD of peptide below 4, 6 times of original peptide)). Besides, the “Detection of Aβ/truncated/modified forms” value in assay [2] is “+”.

Take SEFKHGC [p4381]: the “Inhibition Capacity” value in assay [6] is on record as 1 (Weaker than original epitope (OD of 10 ug peptide below 3 times of original peptide)). Besides, the “Binding Capacity” value in assay [7] is 3 (strong binding :>20000). Besides, the “Detection of Aβ/truncated/modified forms” value in assay [8] was “+”.

As to GEIQFGAC [p4699], in assay [1], the “Binding Capacity” value is listed as 3 (strong binding :>320000). Also, in assay [3], the “Inhibition Capacity” value is 1 (Weaker than original epitope (OD of peptide below 4, 6 times of original peptide)). Moreover, in assay [2], the “Detection of Aβ/truncated/modified forms” value is given as “+”.

With GEIRFGSC [p4696], in [1], the “Binding Capacity” value is 3 (strong binding :>320000). Moreover, in assay [2], the “Detection of Aβ/truncated/modified forms” value is recorded as “+”.

As for SGQLKFPC [p4413], the “Binding Capacity” value in assay [1] is given as 1 (weak binding :<40000). Also, in assay [2], the “Detection of Aβ/truncated/modified forms” value is “+”.

For QSEFKHWC [p4738], the “Inhibition Capacity” value in [6] is listed as 1 (Weaker than original epitope (OD of 10 ug peptide below 3 times of original peptide)). Moreover, the “Binding Capacity” value in assay [7] is listed as 3 (strong binding :>20000). The “Detection of Aβ/truncated/modified forms” value in assay [8] was “+”.

Turning to ILFRHGC [p4390], the “Inhibition Capacity” value in assay [6] was 1 (Weaker than original epitope (OD of 10 ug peptide below 3 times of original peptide)). For the same molecule, the “Binding Capacity” value in assay [7] is reported as 3 (strong binding :>20000). Also, the “Detection of Aβ/truncated/modified forms” value in [8] was “+”.

Consider SGQIWFRC [p4414], for which, in assay [1], the “Binding Capacity” value is 1 (weak binding :<40000). In addition, the “Detection of Aβ/truncated/modified forms” value in [2] is given as “+”.

ADHDFRHC [p4740]: the “Inhibition Capacity” value in assay [6] is 1 (Weaker than original epitope (OD of 10 ug peptide below 3 times of original peptide)). Further, the “Binding Capacity” value in assay [7] is given as 3 (strong binding :>20000). Besides, the “Detection of Aβ/truncated/modified forms” value in assay [8] is reported as “+”.

For the molecule THTDFRHC [p4725], the “Inhibition Capacity” value in [6] was 1 (Weaker than original epitope (OD of 10 ug peptide below 3 times of original peptide)). Further, the “Binding Capacity” value in [7] is 3 (strong binding :>20000). In addition, in [8], the “Detection of Aβ/truncated/modified forms” value is given as “+”.

In the case of THQRLWFC [p4693], in [1], the “Binding Capacity” value is recorded as 3 (strong binding :>320000). For the same molecule, the “Detection of Aβ/truncated/modified forms” value in assay [2] is on record as “+”.

Take CGEIYFER [p4807]: in assay [9], the OD halfmax dilution factor of the parental antibody (1:X) (dilutionfactor(1:x)) was below 40000.

Regarding QLPLFVLC [p4700], in assay [9], the OD halfmax dilution factor of the parental antibody (1:X) (dilutionfactor(1:x)) was below 40000.

Turning to SGEYVFHC [p4404], the OD halfmax dilution factor of the parental antibody (1:X) (dilutionfactor(1:x)) in assay [9] was below 40000.

With AIPLFVMC [p4682], in assay [9], the OD halfmax dilution factor of the parental antibody (1:X) (dilutionfactor(1:x)) is below 40000.

As to AGEIYFERC [p4806], the OD halfmax dilution factor of the parental antibody (1:X) (dilutionfactor(1:x)) in assay [9] is below 40000.

On to KLPLFVMC [p4691], for which the OD halfmax dilution factor of the parental antibody (1:X) (dilutionfactor(1:x)) in assay [9] is below 40000.

For the molecule GTIFFRDC [p4692], the OD halfmax dilution factor of the parental antibody (1:X) (dilutionfactor(1:x)) in [9] is below 40000.

For the molecule SHTRLYFC [p4403], in assay [9], the OD halfmax dilution factor of the parental antibody (1:X) (dilutionfactor(1:x)) was below 40000.

Take SGQIWFRC [p4414]: the OD halfmax dilution factor of the parental antibody (1:X) (dilutionfactor(1:x)) in assay [9] is below 40000.

As to SGEIHFNC [p4415], the OD halfmax dilution factor of the parental antibody (1:X) (dilutionfactor(1:x)) in [9] was below 40000.

Take GQIWFISC [p4666]: in assay [9], the OD halfmax dilution factor of the parental antibody (1:X) (dilutionfactor(1:x)) is below 40000.

As to SGEIYFERC [p4805], the OD halfmax dilution factor of the parental antibody (1:X) (dilutionfactor(1:x)) in [9] is below 40000.

With SGQLKFPC [p4413], the OD halfmax dilution factor of the parental antibody (1:X) (dilutionfactor(1:x)) in assay [9] is below 40000.
